From US20240358818A1, “ANTIBODY-INDUCING POLYPEPTIDE AND VACCINE” (priority 2021, published 2024)
No end group written: not given here.

What was measured:
[1] = target: RBD protein of SARS-COV-2 (Severe acute respiratory syndrome coronavirus 2, UniProt P0DTC2)
[2] = system: IgG in serum samples of patients recovered from SARS-COV-2 infection; assay type: binding, human
[3] = target: S2 protein of SARS-COV-2 (Severe acute respiratory syndrome coronavirus 2, UniProt P0DTC2)
[4] = target: binding between ACE2 and RBD (Severe acute respiratory syndrome coronavirus 2, UniProt P0DTC2); conditions: for inhibition of the binding between ACE2 and RBD: serum of mice sensitized with conjugate, FIG. 2, FIG. 3(A)

| Sequence | RBD recognition ability of mouse serum IgG [1] | reaction with antibodies in serum samples obtained from the 5 patients [2] | S2 recognizing ability of mouse serum IgG [3] | other results |
| --- | --- | --- | --- | --- |
| EVRQIAPGQTGKIADYNYKLPD [#8] | high |  |  |  |
| DRLNEVAKNLNESLIDLQE (also: conjugate) [#115] |  | strongly react | high |  |
| YGVSPTKLNDLCF (also: conjugate) [#5] | without the RBD protein recognizing ability |  |  | inhibition of the binding between ACE2 and RBD [4]: substantially no inhibitory activity was observed |
| SNLKPFERDISTEIYQAGSTPC [#11] | high |  |  | inhibitory ability on ACE2-RBD binding compared with positive control ([4]; mouse serum diluted to 100-fold, positive control mouse anti-RBD polyclonal antibody, FIG. 2): equivalent to that of the positive control; inhibitory effects on ACE2-RBD binding compared with serum of recovered patients ([4]; versus the 4 patients other than patient A, FIG. 3(B)): substantially equivalent |
| ELDSFKEELDKYFKNHTS (also: conjugate) [#111] |  | strongly react | high |  |
| NATRFASVYAWNRKRISNC [#3] | high |  |  | inhibition of the binding between ACE2 and RBD [4]: inhibit the binding between ACE2 and RBD |
| ASVVNIQKEIDRLNEVAKNL [#114] |  | strongly react | high |  |
